According to patent publication US10653681B2, “Analgesic compounds” (Recurium IP Holdings, LLC, priority 2016, dated 2020):

System: male ICR mice
Experiment: Formalin paw test
Format: in vivo, mouse
Details: for Early Phase: early/acute phase (0-10 minutes) after 2% formalin into hind paw; for Late Phase: late/tonic phase (10-35 minutes) after 2% formalin into hind paw
Procedure: One test compound or the vehicle was administered to each mouse in each test group (8 mice per group). Non-fasted male ICR mice weighing 23±3 g were used. Test compounds were administered at a concentration of 30 mg/kg, 100 mg/kg or 200 mg/kg; morphine was administered at a concentration of 10 mg/kg; and acetaminophen was administered at a concentration of >100 mg/kg. The control group received the vehicle (5% DMSO/15% PEG400/10% HPbCD/0.9% Saline). After 10 minutes, a 2% formalin solution (0.02 mL) was injected into one hind paw (sub-plantar) of each mouse. Responses were measured every 5 minutes after the formalin injection for 35 minutes.
The results in Table A are for oral administration; the results in Table B are for intraperitoneal administration; the results in Table C are for intravenous administration. In Tables A, B, and C, ‘A’ designates <70 licks/sec, ‘B’ designates ≥70 licks/sec and <165 licks/sec, and ‘C’ designates ≥165 licks/sec.

[1] = intraperitoneal administration, 30 mg/kg
[2] = intravenous administration, 100 mg/kg

Compound | Early Phase [1] | Late Phase [1] | further results
Cc1coc(N)n1 [Compound 1] | B (‘B’ designates ≥70 licks/sec and <165 licks/sec) | C (‘C’ designates ≥165 licks/sec) | –
Nc1nnc(C(F)(F)F)o1 [Compound 2] | B (‘B’ designates ≥70 licks/sec and <165 licks/sec) | C (‘C’ designates ≥165 licks/sec) | –
CC(C)(C)c1nnc(CN)s1 [Compound 3] | A (‘A’ designates <70 licks/sec) | B (‘B’ designates ≥70 licks/sec and <165 licks/sec) | –
CC(C)(C)c1nnc(N)s1 [Compound 4] | B (‘B’ designates ≥70 licks/sec and <165 licks/sec) | C (‘C’ designates ≥165 licks/sec) | –
Nc1nnc(C(F)(F)F)s1 [Compound 5] | B (‘B’ designates ≥70 licks/sec and <165 licks/sec) | C (‘C’ designates ≥165 licks/sec) | –
CC(C)(C)c1nnc(N)o1 [Compound 6] | B (‘B’ designates ≥70 licks/sec and <165 licks/sec) | C (‘C’ designates ≥165 licks/sec) | –
CC(C)(C)c1csc(CN)n1 [Compound 7] | B (‘B’ designates ≥70 licks/sec and <165 licks/sec) | A (‘A’ designates <70 licks/sec) | –
NCc1nc(C(F)(F)F)cs1 [Compound 8] | A (‘A’ designates <70 licks/sec) | A (‘A’ designates <70 licks/sec) | –
NCCc1nc(C(F)(F)F)cs1 [Compound 9] | A (‘A’ designates <70 licks/sec) | A (‘A’ designates <70 licks/sec) | –
CC(C)(C)c1csc(N)n1 [Compound 10] | A (‘A’ designates <70 licks/sec) | A (‘A’ designates <70 licks/sec) | –
Cc1ncc(CN)s1 [Compound 13] | B (‘B’ designates ≥70 licks/sec and <165 licks/sec) | C (‘C’ designates ≥165 licks/sec) | –
Cc1nc(CN)cs1 [Compound 14] | B (‘B’ designates ≥70 licks/sec and <165 licks/sec) | C (‘C’ designates ≥165 licks/sec) | –
CCn1cc(CN)cn1 [Compound 15] | B (‘B’ designates ≥70 licks/sec and <165 licks/sec) | A (‘A’ designates <70 licks/sec) | –
Cc1nc(N)oc1C [Compound 16] | A (‘A’ designates <70 licks/sec) | A (‘A’ designates <70 licks/sec) | –
Cc1cc(CN)nn1C [Compound 17] | B (‘B’ designates ≥70 licks/sec and <165 licks/sec) | B (‘B’ designates ≥70 licks/sec and <165 licks/sec) | –
NCc1ccc(C(F)(F)F)cc1 [Compound 18] | B (‘B’ designates ≥70 licks/sec and <165 licks/sec) | C (‘C’ designates ≥165 licks/sec) | –
CC(C)(C)c1nccc(N)n1 [Compound 19] | B (‘B’ designates ≥70 licks/sec and <165 licks/sec) | C (‘C’ designates ≥165 licks/sec) | –
Nc1nccc(C(F)(F)F)n1 [Compound 20] | B (‘B’ designates ≥70 licks/sec and <165 licks/sec) | C (‘C’ designates ≥165 licks/sec) | –
Nc1cccc(C(F)(F)F)n1 [Compound 21] | B (‘B’ designates ≥70 licks/sec and <165 licks/sec) | C (‘C’ designates ≥165 licks/sec) | –
Nc1ncc(C(F)(F)F)cn1 [Compound 22] | B (‘B’ designates ≥70 licks/sec and <165 licks/sec) | C (‘C’ designates ≥165 licks/sec) | –
NCc1cccc(C(F)(F)F)n1 [Compound 24] | B (‘B’ designates ≥70 licks/sec and <165 licks/sec) | C (‘C’ designates ≥165 licks/sec) | –
NCCc1ccc(C(F)(F)F)cc1 [Compound 25] | A (‘A’ designates <70 licks/sec) | B (‘B’ designates ≥70 licks/sec and <165 licks/sec) | –
CC(C)(C)C(=O)Nc1ccc(O)cc1 [Compound 26] | – | – | Early Phase (oral administration, 200 mg/kg): B (‘B’ designates ≥70 licks/sec and <165 licks/sec); Late Phase (oral administration, 200 mg/kg): B (‘B’ designates ≥70 licks/sec and <165 licks/sec)
CC(=O)NCc1ccc(C(F)(F)F)cc1 [Compound 27] | – | – | Early Phase [2]: A (‘A’ designates <70 licks/sec); Late Phase [2]: A (‘A’ designates <70 licks/sec)
CC(=O)Nc1ccc(C(C)(C)C)cc1 [Compound 28] | – | – | Early Phase (oral administration, 200 mg/kg): B (‘B’ designates ≥70 licks/sec and <165 licks/sec); Late Phase (oral administration, 200 mg/kg): B (‘B’ designates ≥70 licks/sec and <165 licks/sec)
CC(=O)Nc1ccc(C(F)(F)F)cc1 [Compound 29] | – | – | Early Phase (oral administration, 200 mg/kg): A (‘A’ designates <70 licks/sec); Late Phase (oral administration, 200 mg/kg): A (‘A’ designates <70 licks/sec)
